{"source": "patent US7803930B2", "about": "“Antisense modulation of apolipoprotein B-expression” (Isis Pharmaceuticals, Inc., priority 2002, dated 2010)", "key": {"[1]": {"tested_on": "apolipoprotein B mRNA", "assay": "High fat fed C57BL/6 mice, 6 week timecourse: target mRNA levels in liver", "type": "in vivo, mouse", "conditions": "six weeks", "method": "Male C57BL/6 mice (n=8) receiving a high fat diet (60% kcal fat) were evaluated over the course of 6 weeks for the effects of treatment with the antisense oligonucleotide, ISIS 147764. Control animals received saline treatment (50 mg/kg). A subset of animals received a daily oral dose (20 mg/kg) atorvastatin calcium (Lipitor®, Pfizer Inc.). All mice, except atorvastatin-treated animals, were dosed intraperitoneally every three days (twice a week), after fasting overnight, with 5, 25, 50 mg/kg ISIS 147764 (SEQ ID No: 109) or saline (50 mg/kg) for six weeks. Serum cholesterol and lipoproteins were analyzed at 0, 2 and 6 week interim timepoints. At study termination, animals were sacrificed 48 hours after the final injections and evaluated for levels of target mRNA levels in liver, cholesterol, lipoprotein, triglyceride, liver enzyme (AST and ALT) and serum glucose levels as well as body, liver, spleen and fat pad weights.\nMale C57BL/6 mice (n=8) receiving a high fat diet (60% kcal fat) were evaluated over the course of 6 weeks for the effects of ISIS 147764 on mRNA expression. Control animals received saline treatment (50 mg/kg). Mice were dosed intraperitoneally every three days (twice a week), after fasting overnight, with 5, 25, 50 mg/kg ISIS 147764 (SEQ ID No: 109) or saline (50 mg/kg) for six weeks. At study termination, animals were sacrificed 48 hours after the final injections and evaluated for levels of target mRNA levels in liver."}, "[2]": {"assay": "Evaluation of steatosis in high fat fed animals treated for 6 weeks, liver histology", "type": "in vivo, mouse", "conditions": "high fat fed C57BL/6 mice; 6 weeks of treatment", "source_text": "Tissue resected from liver is immediately immersed in Tissue Tek OCT embedding compound (Ted Pella, Inc., Redding, Calif.) and frozen in a 2-methyl-butane dry ice slurry. Tissue sections are cut at a thickness of 4-5 μm and then fixed in 5% neutral-buffered formalin. Tissue sections are stained with hematoxylin and eosin following standard histological procedures to visualize nuclei and cytoplasm, respectively, and oil red 0 according to the manufacturer's instructions (Newcomers Supply, Middleton, Wis.) to visualize lipids.\nAlternatively, tissues are fixed in 10% neutral-buffered formalin, embedded in paraffin, sectioned at a thickness of 4-5 μm, deparaffinized and stained with hematoxylin and eosin, all according to standard histological procedures.\nLiver tissue from ISIS 147764 (SEQ ID NO: 109) and control-treated animals described in Example 21 was evaluated for steatosis at study termination following 6 weeks of treatment. Tissue sections were stained with oil red 0 and hematoxylin to visualize lipids and nuclei, respectively. Tissue sections were also stained with hematoxylin and eosin to visualize nuclei and cytoplasm, respectively."}, "[3]": {"tested_on": "human apolipoprotein B protein", "assay": "Transgenic mice dosing study (Example 52): serum human apolipoprotein B protein by ELISA", "type": "in vivo, human transgene in mouse", "method": "(§1) A long-term study of inhibition of human apolipoprotein B by ISIS 301012 in C57BL/6NTac-TgN(APOB100) mice (Taconic, Germantown, N.Y.) was conducted for a 3 month period. Mice were dosed intraperitoneally twice a week with 10 or 25 mg/kg ISIS 301012 (SEQ ID No: 247) for 12 weeks. Saline-injected animals served as controls. Each treatment group comprised 4 animals.\nAfter 2, 4, 6, 8 and 12 weeks of treatment, serum samples were collected for the purpose of measuring human apolipoprotein B protein. Serum protein was quantitated using an ELISA kit specific for human apolipoprotein B (ALerCHEK Inc., Portland, Me.). The data are shown in Table 30 and each result represents the average of 4 animals. Data are normalized to saline-treated control animals."}, "[4]": {"assay": "Long-term study in lean Cynomolgous monkeys (Example 64): serum lipids by nuclear magnetic resonance spectroscopy", "type": "in vivo, Cynomolgous monkey", "conditions": "one month", "method": "[…] Saline-treated animals serve as controls. Each treatment group includes 2 to 3 animals of each sex.\nThe results from the one month interval of the long term treatment are shown in Table 50 and are normalized to saline-treated animals for mRNA and to untreated baseline values for lipid levels. Total cholesterol, LDL-cholesterol, HDL-cholesterol, LDL particle concentration and triglyceride levels in serum were measured by nuclear magnetic resonance spectroscopy by Liposcience (Raleigh, N.C.). Additionally, the concentration of intact oligonucleotide in liver was measured by capillary gel electrophoresis and is presented as micrograms of oligonucleotide per gram of liver tissue. Each result represents the average of data from 4 animals (2 males and 2 females)."}, "[5]": {"tested_on": "human apolipoprotein B mRNA", "assay": "Transgenic mice dosing study (Example 52): human apolipoprotein B mRNA in liver", "type": "in vivo, human transgene in mouse", "conditions": "for % Inhibition, human apolipoprotein B mRNA: liver, 12 weeks", "method": "as §1\n(§2) The study was terminated forty eight hours after the final injections in the eighth week of treatment, when animals were sacrificed and evaluated for target mRNA levels in liver, apolipoprotein B protein levels in liver and serum cholesterol and liver enzyme levels. In addition, the expression of endogenous mouse apolipoprotein B levels in liver was measured to evaluate any effects of ISIS 301012 on mouse apolipoprotein B mRNA expression.\n(§3) Human and mouse apolipoprotein B mRNA levels in livers of animals treated for 12 weeks were measured by real-time PCR as described herein. Each result represents the average of data from 4 animals."}, "[6]": {"tested_on": "mouse apolipoprotein B mRNA", "assay": "Transgenic mice dosing study (Example 52): mouse apolipoprotein B mRNA in liver", "type": "in vivo", "conditions": "for % Inhibition, mouse apolipoprotein B mRNA: liver, 12 weeks", "method": "as §1, §2, §3"}}}
{"substance": "GTCCCTGAAGATGTCAATGC (2'-MOE gapmer, further chemistry not given here) [ISIS 147764]", "values": [{"measurement": "reduction of target mRNA levels in liver", "setting": "[1]; 5 mg/kg i.p. every three days", "value": 15, "unit": "%"}, {"measurement": "reduction of target mRNA levels in liver", "setting": "[1]; 25 mg/kg i.p. every three days", "value": 75, "unit": "%"}, {"measurement": "reduction of target mRNA levels in liver", "setting": "[1]; 50 mg/kg i.p. every three days", "value": 88, "unit": "%"}, {"measurement": "steatosis vs saline treated animals (histology)", "setting": "[2]", "value": "no difference in steatosis"}]}
{"substance": "ISIS 301012: SEQ ID NO: 247, antisense oligonucleotide targeted to human apolipoprotein B (antisense GCCTCAGTCTGCTTCGCACC; chemistry not given here)", "values": [{"measurement": "% Reduction in human apolipoprotein B protein in serum", "setting": "[3]; 10 mg/kg i.p. twice a week, 2 weeks", "value": 76, "unit": "%"}, {"measurement": "% Reduction in human apolipoprotein B protein in serum", "setting": "[3]; 10 mg/kg i.p. twice a week, 4 weeks", "value": 78, "unit": "%"}, {"measurement": "% Reduction in human apolipoprotein B protein in serum", "setting": "[3]; 10 mg/kg i.p. twice a week, 6 weeks", "value": 73, "unit": "%"}, {"measurement": "% Reduction in human apolipoprotein B protein in serum", "setting": "[3]; 10 mg/kg i.p. twice a week, 8 weeks", "value": 42, "unit": "%"}, {"measurement": "% Reduction in human apolipoprotein B protein in serum", "setting": "[3]; 10 mg/kg i.p. twice a week, 12 weeks", "value": 85, "unit": "%"}, {"measurement": "% Reduction in human apolipoprotein B protein in serum", "setting": "[3]; 25 mg/kg i.p. twice a week, 2 weeks", "value": 80, "unit": "%"}, {"measurement": "% Reduction in human apolipoprotein B protein in serum", "setting": "[3]; 25 mg/kg i.p. twice a week, 4 weeks", "value": 87, "unit": "%"}, {"measurement": "% Reduction in human apolipoprotein B protein in serum", "setting": "[3]; 25 mg/kg i.p. twice a week, 6 weeks", "value": 86, "unit": "%"}, {"measurement": "% Reduction in human apolipoprotein B protein in serum", "setting": "[3]; 25 mg/kg i.p. twice a week, 8 weeks", "value": 47, "unit": "%"}, {"measurement": "% Reduction in human apolipoprotein B protein in serum", "setting": "[3]; 25 mg/kg i.p. twice a week, 12 weeks", "value": 79, "unit": "%"}, {"measurement": "lowering of human apolipoprotein B protein in serum (ELISA)", "setting": "[3]; 10 or 25 mg/kg i.p. twice a week, 2, 4, 6 or 12 weeks", "value": "approximately 80%"}, {"measurement": "HDL-cholesterol, % change normalized to untreated baseline value", "setting": "[4]; intravenous 2 mg/kg", "value": "−23", "unit": "%"}, {"measurement": "LDL Particle concentration, % change normalized to untreated baseline value", "setting": "[4]; intravenous 2 mg/kg", "value": "+8%"}, {"measurement": "LDL-cholesterol, % change normalized to untreated baseline value", "setting": "[4]; intravenous 2 mg/kg", "value": "+15%"}, {"measurement": "LDL/HDL, % change normalized to untreated baseline value", "setting": "[4]; intravenous 2 mg/kg", "value": "+94%"}, {"measurement": "Total cholesterol, % change normalized to untreated baseline value", "setting": "[4]; intravenous 2 mg/kg", "value": "−6", "unit": "%"}, {"measurement": "Total cholesterol/HDL, % change normalized to untreated baseline value", "setting": "[4]; intravenous 2 mg/kg", "value": "+44%"}, {"measurement": "Triglyceride, % change normalized to untreated baseline value", "setting": "[4]; intravenous 2 mg/kg", "value": "+26%"}, {"measurement": "HDL-cholesterol, % change normalized to untreated baseline value", "setting": "[4]; intravenous 4 mg/kg", "value": "−15", "unit": "%"}, {"measurement": "LDL Particle concentration, % change normalized to untreated baseline value", "setting": "[4]; intravenous 4 mg/kg", "value": "+8%"}, {"measurement": "LDL-cholesterol, % change normalized to untreated baseline value", "setting": "[4]; intravenous 4 mg/kg", "value": "+9%"}, {"measurement": "LDL/HDL, % change normalized to untreated baseline value", "setting": "[4]; intravenous 4 mg/kg", "value": "+38%"}, {"measurement": "Total cholesterol, % change normalized to untreated baseline value", "setting": "[4]; intravenous 4 mg/kg", "value": "−2", "unit": "%"}, {"measurement": "Total cholesterol/HDL, % change normalized to untreated baseline value", "setting": "[4]; intravenous 4 mg/kg", "value": "+22%"}, {"measurement": "Triglyceride, % change normalized to untreated baseline value", "setting": "[4]; intravenous 4 mg/kg", "value": "+32%"}, {"measurement": "HDL-cholesterol, % change normalized to untreated baseline value", "setting": "[4]; intravenous 12 mg/kg", "value": "−8", "unit": "%"}, {"measurement": "LDL Particle concentration, % change normalized to untreated baseline value", "setting": "[4]; intravenous 12 mg/kg", "value": "−11", "unit": "%"}, {"measurement": "LDL-cholesterol, % change normalized to untreated baseline value", "setting": "[4]; intravenous 12 mg/kg", "value": "+3%"}, {"measurement": "LDL/HDL, % change normalized to untreated baseline value", "setting": "[4]; intravenous 12 mg/kg", "value": "+44%"}, {"measurement": "Total cholesterol, % change normalized to untreated baseline value", "setting": "[4]; intravenous 12 mg/kg", "value": "−2", "unit": "%"}, {"measurement": "Total cholesterol/HDL, % change normalized to untreated baseline value", "setting": "[4]; intravenous 12 mg/kg", "value": "+21%"}, {"measurement": "Triglyceride, % change normalized to untreated baseline value", "setting": "[4]; intravenous 12 mg/kg", "value": "+15%"}, {"measurement": "HDL-cholesterol, % change normalized to untreated baseline value", "setting": "[4]; subcutaneous 3.5 mg/kg", "value": "+13%"}, {"measurement": "LDL Particle concentration, % change normalized to untreated baseline value", "setting": "[4]; subcutaneous 3.5 mg/kg", "value": "−14", "unit": "%"}, {"measurement": "LDL-cholesterol, % change normalized to untreated baseline value", "setting": "[4]; subcutaneous 3.5 mg/kg", "value": "−4", "unit": "%"}, {"measurement": "LDL/HDL, % change normalized to untreated baseline value", "setting": "[4]; subcutaneous 3.5 mg/kg", "value": "−15", "unit": "%"}, {"measurement": "Total cholesterol, % change normalized to untreated baseline value", "setting": "[4]; subcutaneous 3.5 mg/kg", "value": "+5%"}, {"measurement": "Total cholesterol/HDL, % change normalized to untreated baseline value", "setting": "[4]; subcutaneous 3.5 mg/kg", "value": "−7", "unit": "%"}, {"measurement": "Triglyceride, % change normalized to untreated baseline value", "setting": "[4]; subcutaneous 3.5 mg/kg", "value": "+1%"}, {"measurement": "HDL-cholesterol, % change normalized to untreated baseline value", "setting": "[4]; subcutaneous 20 mg/kg", "value": "+5%"}, {"measurement": "LDL Particle concentration, % change normalized to untreated baseline value", "setting": "[4]; subcutaneous 20 mg/kg", "value": "−21", "unit": "%"}, {"measurement": "LDL-cholesterol, % change normalized to untreated baseline value", "setting": "[4]; subcutaneous 20 mg/kg", "value": "−16", "unit": "%"}, {"measurement": "LDL/HDL, % change normalized to untreated baseline value", "setting": "[4]; subcutaneous 20 mg/kg", "value": "−19", "unit": "%"}, {"measurement": "Total cholesterol, % change normalized to untreated baseline value", "setting": "[4]; subcutaneous 20 mg/kg", "value": "−5", "unit": "%"}, {"measurement": "Total cholesterol/HDL, % change normalized to untreated baseline value", "setting": "[4]; subcutaneous 20 mg/kg", "value": "−10", "unit": "%"}, {"measurement": "Triglyceride, % change normalized to untreated baseline value", "setting": "[4]; subcutaneous 20 mg/kg", "value": "−3", "unit": "%"}, {"measurement": "reduction of human apolipoprotein B mRNA in liver", "setting": "[5]; 12 weeks of treatment", "value": "≤ 75", "unit": "%"}, {"measurement": "% Inhibition, human apolipoprotein B mRNA", "setting": "[5]; 10 mg/kg i.p. twice a week", "value": 65, "unit": "%"}, {"measurement": "% Inhibition, human apolipoprotein B mRNA", "setting": "[5]; 25 mg/kg i.p. twice a week", "value": 75, "unit": "%"}, {"measurement": "mouse liver apolipoprotein B mRNA", "setting": "[6]; 12 weeks of treatment", "value": "unaffected"}, {"measurement": "% Inhibition, mouse apolipoprotein B mRNA", "setting": "[6]; 10 mg/kg i.p. twice a week", "value": 6, "unit": "%"}, {"measurement": "% Inhibition, mouse apolipoprotein B mRNA", "setting": "[6]; 25 mg/kg i.p. twice a week", "value": 6, "unit": "%"}]}
